Source: the supplement of paper PMC10627819

Legend:
B. subtilis 168 = test: Bliss interaction score (quartile over a dose matrix) (fitness difference); higher = more antagonism (negative = synergy)
In short: (§1)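 Each plate was normalised to the robust mean of its own no-drug wells, using OD595 at entry into stationary phase, with values capped at 1. This normalised growth is the fitness value. The Bliss score is the difference between observed and product-expected fitness, with single-drug fitness inferred from the combination data and quartiles taken over technical, biological and donor/recipient replicates.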

S. pneumoniae D39V [1] = test: as above
In short: as §1

S. aureus Newman = test: as above
In short: as §1

S. aureus DSM 20231 = test: as above
In short: as §1

S. pneumoniae D39V [2] = test: fitness (endpoint OD595 vs no drug) (fraction); higher = more growth
In short: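 Plates with 384 wells were inoculated at OD595 0.01 using 30 µl of TSB, LB Lennox or CY, or 55 µl for S. pneumoniae. Incubation was at 37 °C, with OD595 measured every 30 min for 14 h. Fitness is the stationary-phase transition optical density over the robust mean of no-drug control wells, after first-reading background subtraction; it is capped at 1.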
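Throughout, for Bliss interaction score (quartile over a dose matrix): first quartile when negative (synergy) and third quartile when positive (antagonism).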

CC[C@H]1OC(=O)[C@H](C)[C@@H](O[C@H]2C[C@@](C)(OC)[C@@H](O)[C@H](C)O2)[C@H](C)[C@@H](O[C@@H]2O[C@H](C)C[C@H](N(C)C)[C@H]2O)[C@](C)(OC)C[C@@H](C)C(=O)[C@H](C)[C@@H](O)[C@]1(C)O [Clarithromycin] + C[C@@H](O)[C@H]1C(=O)N2C(C(=O)O)=C(SCCNC=N)C[C@H]12 [Imipenem]
Conditions	Bliss interaction score
B. subtilis 168	0.0428
S. aureus DSM 20231	0.0295
S. aureus Newman	0.0267
S. pneumoniae D39V [1]	-0.085

fitness, S. pneumoniae D39V [2], one replicate
Conditions	first compound 0.007812 µg/mL	first compound 0.01562 µg/mL	first compound 0.03125 µg/mL
partner 0.005 µg/mL	0.831	0.812	0.589
partner 0.01 µg/mL	0.855	0.837	0.612
partner 0.02 µg/mL	0.858	0.844	0.629

fitness, S. pneumoniae D39V [2]
Conditions	first compound 0.0625 µg/mL	first compound 0.07 µg/mL	first compound 0.125 µg/mL	first compound 0.14 µg/mL	first compound 0.25 µg/mL	first compound 0.28 µg/mL
partner 0.005 µg/mL	–	0.13	–	0.0799	–	0.0611
partner 0.0065 µg/mL	0.541	–	0.154	–	0.0361	–
partner 0.01 µg/mL	–	0.146	–	0.0799	–	0.0532
partner 0.013 µg/mL	0.661	–	0.277	–	0.0557	–
partner 0.02 µg/mL	–	0.17	–	0.109	–	0.0635
partner 0.026 µg/mL	0.621	–	0.201	–	0.0493	–

O=C1CN(/N=C/c2ccc([N+](=O)[O-])o2)C(=O)N1 [Nitrofurantoin] + CN1C2=CC=CC=C2N=C3C1=CC=CC3=O [Pyocyanin]
Conditions	Bliss interaction score
B. subtilis 168	0.0805
S. aureus DSM 20231	-0.0533
S. aureus Newman	-0.0575
S. pneumoniae D39V [1]	-0.199

fitness, S. pneumoniae D39V [2]
Conditions	partner 0.325 µg/mL	partner 0.65 µg/mL	partner 1.3 µg/mL
first compound 1.285 µg/mL	0.979	0.919	0.634
first compound 2.57 µg/mL	0.94	0.796	0.444

fitness, S. pneumoniae D39V [2], one replicate
Conditions	first compound 2 µg/mL	first compound 4 µg/mL	first compound 5.14 µg/mL	first compound 8 µg/mL
partner 0.325 µg/mL	≥ 1	≥ 1	0.798	0.738
partner 0.65 µg/mL	≥ 1	0.982	0.637	0.814
partner 1.3 µg/mL	–	–	0.332	–

C[C@@H](O)[C@H]1C(=O)N2C(C(=O)O)=C(SCCNC=N)C[C@H]12 [Imipenem] + COc1c(N2C[C@@H]3CCCN[C@@H]3C2)c(F)cc2c(=O)c(C(=O)O)cn(C3CC3)c12 [Moxifloxacin]
Conditions	Bliss interaction score
B. subtilis 168	0.0307
S. aureus DSM 20231	-0.0816
S. aureus Newman	0.0177
S. pneumoniae D39V [1]	0.0521

fitness, S. pneumoniae D39V [2]
Conditions	first compound 0.005 µg/mL	first compound 0.0065 µg/mL	first compound 0.01 µg/mL	first compound 0.013 µg/mL	first compound 0.02 µg/mL	first compound 0.026 µg/mL
partner 0.0037 µg/mL	–	0.821	–	0.805	–	0.751
partner 0.005 µg/mL	0.968	–	0.949	–	0.963	–
partner 0.0075 µg/mL	–	0.853	–	0.863	–	0.649
partner 0.01 µg/mL	0.99	–	0.981	–	0.976	–
partner 0.015 µg/mL	–	0.856	–	0.67	–	0.65
partner 0.02 µg/mL	0.933	–	0.904	–	0.941	–

C[C@@H](O)[C@H]1C(=O)N2C(C(=O)O)=C(SCCNC=N)C[C@H]12 [Imipenem] + CN1C2=CC=CC=C2N=C3C1=CC=CC3=O [Pyocyanin]
Conditions	Bliss interaction score
B. subtilis 168	0.0885
S. aureus DSM 20231	-0.0657
S. aureus Newman	0.0283
S. pneumoniae D39V [1]	0.0503

fitness, S. pneumoniae D39V [2], one replicate
Conditions	first compound 0.005 µg/mL	first compound 0.01 µg/mL	first compound 0.02 µg/mL
partner 0.325 µg/mL	0.945	0.947	≥ 1
partner 0.65 µg/mL	0.979	0.959	0.957

fitness, S. pneumoniae D39V [2]
Conditions	first compound 0.0065 µg/mL	first compound 0.013 µg/mL	first compound 0.026 µg/mL
partner 0.325 µg/mL	0.975	≥ 1	0.983
partner 0.65 µg/mL	0.936	0.929	0.892
partner 1.3 µg/mL	0.591	0.698	0.657

O=C1CN(/N=C/c2ccc([N+](=O)[O-])o2)C(=O)N1 [Nitrofurantoin] + Cn1nnc(-c2ccc(-c3ccc(N4C[C@H](CO)OC4=O)cc3F)cn2)n1 [Tedizolid]
Conditions	Bliss interaction score
B. subtilis 168	-0.0546
S. aureus DSM 20231	-0.0543
S. aureus Newman	-0.0562
S. pneumoniae D39V [1]	-0.141

fitness, S. pneumoniae D39V [2]
Conditions	first compound 1.285 µg/mL	first compound 2 µg/mL	first compound 2.57 µg/mL	first compound 4 µg/mL	first compound 8 µg/mL
partner 0.03125 µg/mL	–	0.948	–	0.957	0.951
partner 0.0625 µg/mL	–	0.893	–	0.915	0.859
partner 0.125 µg/mL	0.805	0.767	0.812	0.775	0.771
partner 0.25 µg/mL	0.724	–	0.676	–	–
partner 0.5 µg/mL	0.258	–	0.217	–	–

S. pneumoniae D39V [2], first compound 5.14 µg/mL, one replicate
Conditions	fitness
partner 0.125 µg/mL	0.791
partner 0.25 µg/mL	0.589
partner 0.5 µg/mL	0.18

CC[C@H]1OC(=O)[C@H](C)[C@@H](O[C@H]2C[C@@](C)(OC)[C@@H](O)[C@H](C)O2)[C@H](C)[C@@H](O[C@@H]2O[C@H](C)C[C@H](N(C)C)[C@H]2O)[C@](C)(OC)C[C@@H](C)C(=O)[C@H](C)[C@@H](O)[C@]1(C)O [Clarithromycin] + CCN(CC)CCOC(=O)c1ccc(N)cc1 [Procaine]
Conditions	Bliss interaction score
B. subtilis 168	0.0395
S. aureus DSM 20231	0.0493
S. aureus Newman	0.0711
S. pneumoniae D39V [1]	0.0576

fitness, S. pneumoniae D39V [2], one replicate
Conditions	first compound 0.007812 µg/mL	first compound 0.01562 µg/mL	first compound 0.03125 µg/mL	first compound 0.0625 µg/mL	first compound 0.125 µg/mL	first compound 0.25 µg/mL
partner 85.5 µg/mL	0.962	0.921	0.691	0.659	0.251	0.102
partner 171 µg/mL	0.983	0.903	0.702	0.77	0.284	0.169
partner 342 µg/mL	0.993	0.923	0.719	0.595	0.464	0.33

fitness, S. pneumoniae D39V [2]
Conditions	first compound 0.07 µg/mL	first compound 0.14 µg/mL	first compound 0.28 µg/mL
partner 85.5 µg/mL	0.125	0.0737	0.0531
partner 171 µg/mL	0.141	0.065	0.0466
partner 342 µg/mL	0.141	0.0668	0.061

C[C@@H](O)[C@H]1C(=O)N2C(C(=O)O)=C(SCCNC=N)C[C@H]12 [Imipenem] + CC1=C\[C@@H](O)CC(=O)Cc2nc(co2)C(=O)N2CCC=C2C(=O)O[C@H](C(C)C)[C@H](C)/C=C/C(=O)NC\C=C\1 [Virginiamycin M1]
Conditions	Bliss interaction score
B. subtilis 168	0.0502
S. aureus DSM 20231	0.0515
S. aureus Newman	-0.0199
S. pneumoniae D39V [1]	0.0822

fitness, S. pneumoniae D39V [2], one replicate
Conditions	partner 0.15 µg/mL	partner 0.3 µg/mL	partner 0.5 µg/mL	partner 1 µg/mL
first compound 0.005 µg/mL	0.993	0.88	0.978	0.979
first compound 0.01 µg/mL	≥ 1	0.995	0.97	≥ 1
first compound 0.02 µg/mL	0.988	0.901	0.978	≥ 1

fitness, S. pneumoniae D39V [2]
Conditions	first compound 0.005 µg/mL	first compound 0.0065 µg/mL	first compound 0.01 µg/mL	first compound 0.013 µg/mL	first compound 0.02 µg/mL	first compound 0.026 µg/mL
partner 0.5 µg/mL	–	0.992	–	0.999	–	0.964
partner 1 µg/mL	–	0.983	–	≥ 1	–	0.978
partner 2 µg/mL	0.893	0.983	0.88	–	0.888	0.891

O=C1CN(/N=C/c2ccc([N+](=O)[O-])o2)C(=O)N1 [Nitrofurantoin] + CN(N=O)C(=O)N[C@@H](C=O)[C@@H](O)[C@H](O)[C@H](O)CO [Streptozotocin]
Conditions	Bliss interaction score
B. subtilis 168	0.0585
S. aureus DSM 20231	-0.034
S. aureus Newman	0.0906
S. pneumoniae D39V [1]	0.0714

fitness, S. pneumoniae D39V [2]
Conditions	partner 1.2 µg/mL	partner 2.4 µg/mL	partner 4.8 µg/mL
first compound 1.285 µg/mL	0.928	0.94	0.939
first compound 2.57 µg/mL	0.939	0.952	0.957

fitness, S. pneumoniae D39V [2], one replicate
Conditions	first compound 2 µg/mL	first compound 4 µg/mL	first compound 5.14 µg/mL	first compound 8 µg/mL
partner 1.2 µg/mL	0.954	0.959	0.86	0.818
partner 2.4 µg/mL	0.961	≥ 1	0.919	0.842
partner 4.8 µg/mL	≥ 1	≥ 1	0.871	≥ 1

CC[C@H]1OC(=O)[C@H](C)[C@@H](O[C@H]2C[C@@](C)(OC)[C@@H](O)[C@H](C)O2)[C@H](C)[C@@H](O[C@@H]2O[C@H](C)C[C@H](N(C)C)[C@H]2O)[C@](C)(OC)C[C@@H](C)C(=O)[C@H](C)[C@@H](O)[C@]1(C)O [Clarithromycin] + CCC(C)C1C(=O)NC(=C)C(=O)NC(C(=O)NC(CSCC(C(=O)N1)NC(=O)/C(=C/C)/NC(=O)C(C(C)CC)N)C(=O)NC2C(SCC(NC(=O)CNC(=O)C3CCCN3C2=O)C(=O)NC(CCCCN)C(=O)NC4C(SCC(NC(=O)CNC(=O)C(NC(=O)C(NC(=O)C(NC(=O)CNC4=O)C)CC(C)C)CCSC)C(=O)NC(CC(=O)N)C(=O)NC(CCSC)C(=O)NC(CCCCN)C(=O)NC5C(SCC6C(=O)NC(C(=O)NC(CSC(C(C(=O)N6)NC(=O)C(NC5=O)C)C)C(=O)NC(CO)C(=O)NC(C(C)CC)C(=O)NC(CC7=CN=CN7)C(=O)NC(C(C)C)C(=O)NC(=C)C(=O)NC(CCCCN)C(=O)O)CC8=CN=CN8)C)C)C)CC(C)C [Nisin]
main component drawn
Conditions	Bliss interaction score
B. subtilis 168	0.0377
S. aureus DSM 20231	-0.0781
S. aureus Newman	-0.0489
S. pneumoniae D39V [1]	0.0379

fitness, S. pneumoniae D39V [2], one replicate, main component drawn
Conditions	first compound 0.007812 µg/mL	first compound 0.01562 µg/mL	first compound 0.03125 µg/mL
partner 1.6 µg/mL	0.0546	0.105	0.0716
partner 3.2 µg/mL	0.0468	0.0811	0.0837
partner 6.4 µg/mL	0.0495	0.123	0.0731

S. pneumoniae D39V [2], main component drawn
Conditions	fitness
first compound 0.0625 µg/mL, partner 0.4275 µg/mL	0.704
first compound 0.0625 µg/mL, partner 1.71 µg/mL	0.0947
first compound 0.07 µg/mL, partner 1.6 µg/mL	0.0167
first compound 0.07 µg/mL, partner 3.2 µg/mL	0.0245
first compound 0.07 µg/mL, partner 6.4 µg/mL	0.0168
first compound 0.125 µg/mL, partner 0.4275 µg/mL	0.233
first compound 0.125 µg/mL, partner 0.855 µg/mL	0.118
first compound 0.125 µg/mL, partner 1.71 µg/mL	0.0991
first compound 0.14 µg/mL, partner 1.6 µg/mL	0.019
first compound 0.14 µg/mL, partner 3.2 µg/mL	0.0272
first compound 0.14 µg/mL, partner 6.4 µg/mL	0.0323
first compound 0.25 µg/mL, partner 0.4275 µg/mL	0.0872
first compound 0.25 µg/mL, partner 0.855 µg/mL	0.0757
first compound 0.25 µg/mL, partner 1.71 µg/mL	0.0969
first compound 0.28 µg/mL, partner 1.6 µg/mL	0.0103
first compound 0.28 µg/mL, partner 3.2 µg/mL	0.0421
first compound 0.28 µg/mL, partner 6.4 µg/mL	0.0171
